From ChEMBL document CHEMBL4364278, “2,7-naphthyridinone-based MET kinase inhibitors: A promising novel scaffold for antitumor drug development” (Eur J Med Chem, 2019)

Legend:
[1] = AUC (0 to infinity) in rat at 2.5 mg/kg, iv; type: ADME, organism-based; design: dose 2.5 mg/kg, route intravenous, time infinity; conditions: in vivo
[2] = Clearance in rat at 2.5 mg/kg, iv; type: ADME, organism-based; conditions: in vivo
[3] = system: U-87 MG; assay: Antitumour activity against human U87MG cells xenografted in athymic nude mouse assessed as tumor growth inhibition at 40 mg/kg, po administrated for 3 weeks by caliper method relative to control; conditions: 504 h, read-out: TGI
[4] = Tmax in rat at 10 mg/kg, po; type: ADME, organism-based; conditions: in vivo
[5] = Cmax in rat at 10 mg/kg, po; type: ADME, organism-based; design: dose 10 mg/kg, route oral; conditions: in vivo
[6] = AUC (0 to infinity) in rat at 10 mg/kg, po; type: ADME, organism-based; design: dose 10 mg/kg, route oral, time infinity; conditions: in vivo
[7] = system: U-87 MG; assay: Antitumour activity against human U87MG cells xenografted in orally dosed athymic nude mouse assessed as inhibition in tumor growth administrated for 3 weeks by caliper method; type: functional; conditions: for inhibition: U-87MG ATCC; for minimal effective dose: po, 504 h, read-out: MED
[8] = Volume of distribution in rat at 2.5 mg/kg, iv; type: ADME, organism-based; conditions: in vivo
[9] = Half life in rat at 10 mg/kg, po; type: ADME, organism-based; conditions: in vivo
[10] = system: U-87 MG; assay: animal or person; conditions: Mus musculus, po, 504 h, read-out: TGI
Description: Antitumour activity against human U87MG cells xenografted in athymic nude mouse assessed as tumor growth inhibition at 25 mg/kg, po administrated for 3 weeks by caliper method relative to control

[11] = Oral bioavailability in rat at 10 mg/kg; type: ADME, organism-based; conditions: in vivo
[12] = Half life in rat at 2.5 mg/kg, iv; type: ADME, organism-based; conditions: in vivo
[13] = target: T1, Hepatocyte growth factor receptor (Homo sapiens, UniProt P08581)
Description: Inhibition of HGF-induced cMET autophosphorylation in human MKN45 cells preincubated for 1 hr followed by HGF addition and measured after 10 mins by ELISA

[14] = target: Vascular endothelial growth factor receptor 2 (Homo sapiens, UniProt P35968)
Description: Inhibition of recombinant human His-tagged VEGFR2 cytoplasmic domain expressed in baculovirus expression system using biotin as substrate preincubated for 5 mins followed by substrate addition and measured after 30 to 60 mins by HTRF assay

[15] = target: T1, Hepatocyte growth factor receptor; remark: listed apart in the source
Description: Inhibition of human recombinant His-tagged cMET cytoplasmic domain expressed in baculovirus expression system using biotin as substrate preincubated for 5 mins followed by substrate addition and measured after 30 to 60 mins by HTRF assay

[16] = system: HT-29; assay: Antitumour activity against human HT-29 cells xenografted in athymic nude mouse assessed as tumor growth inhibition at 25 mg/kg, po administrated for 3 weeks by caliper method relative to control; type: functional; conditions: HT-29, po, 504 h, read-out: TGI
[17] = target: BDNF/NT-3 growth factors receptor (Homo sapiens) (UniProt Q16620); assay: Inhibition of TRKB (unknown origin) at 1 uM relative to control
[18] = Fraction unbound in mouse plasma at 2 uM; type: ADME, cell-free
[19] = target: Tyrosine-protein kinase receptor UFO (Homo sapiens) (UniProt P30530); assay: Inhibition of AXL (unknown origin) at 1 uM relative to control
[20] = target: cAMP-dependent protein kinase catalytic subunit alpha (Homo sapiens) (UniProt P17612); assay: Inhibition of PKA (unknown origin) at 1 uM relative to control
[21] = target: Ephrin type-B receptor 4 (Homo sapiens) (UniProt P54760); assay: Inhibition of EphB4 (unknown origin) at 1 uM relative to control
[22] = target: Proto-oncogene tyrosine-protein kinase Src (Homo sapiens) (UniProt P12931); assay: Inhibition of SRC (1 to 530 residues)(unknown origin) at 1 uM relative to control
[23] = target: Macrophage-stimulating protein receptor (Homo sapiens) (UniProt Q04912); assay: Inhibition of RON (unknown origin) at 1 uM relative to control
[24] = target: Vascular endothelial growth factor receptor 1 (Homo sapiens) (UniProt P17948); assay: Inhibition of FLT1 (unknown origin) at 1 uM relative to control
[25] = target: Proto-oncogene tyrosine-protein kinase ROS (Homo sapiens) (UniProt P08922); assay: Inhibition of ROS (unknown origin) at 1 uM relative to control
[26] = target: Tyrosine-protein kinase receptor TYRO3 (Homo sapiens) (UniProt Q06418); assay: Inhibition of RSE (unknown origin) at 1 uM relative to control
[27] = target: Tyrosine-protein kinase Fgr (Homo sapiens) (UniProt P09769); assay: Inhibition of FGR (unknown origin) at 1 uM relative to control
[28] = Fraction unbound in human plasma at 2 uM; type: ADME, cell-free
[29] = target: Vascular endothelial growth factor receptor 3 (Homo sapiens) (UniProt P35916); assay: Inhibition of FLT4 (unknown origin) at 1 uM relative to control
[30] = system: HT-29; assay: Antitumour activity against human HT-29 cells xenografted in athymic nude mouse assessed as tumor growth inhibition at 50 mg/kg, po administrated for 3 weeks by caliper method relative to control; type: functional; conditions: HT-29, po, 504 h, read-out: TGI
[31] = target: Dual specificity tyrosine-phosphorylation-regulated kinase 2 (Homo sapiens) (UniProt Q92630); assay: Inhibition of DYRK2 (unknown origin) at 1 uM relative to control
[32] = target: High affinity nerve growth factor receptor (Homo sapiens) (UniProt P04629); assay: Inhibition of TRKA (unknown origin) at 1 uM relative to control
[33] = system: U-87 MG; assay: Antitumour activity against human U87MG cells xenografted in athymic nude mouse assessed as tumor growth inhibition at 12.5 mg/kg, po administrated for 3 weeks by caliper method relative to control; type: functional, U-87MG ATCC; conditions: 504 h, read-out: TGI
[34] = target: Aurora kinase B (Homo sapiens) (UniProt Q96GD4); assay: Inhibition of AuroraB (unknown origin) at 1 uM relative to control
[35] = target: Tyrosine-protein kinase Lyn (Homo sapiens) (UniProt P07948); assay: Inhibition of LYN (unknown origin) at 1 uM relative to control
[36] = target: Tyrosine-protein kinase Lck (Homo sapiens) (UniProt P06239); assay: Inhibition of LCK (unknown origin) at 1 uM relative to control
[37] = target: Ephrin type-A receptor 3 (Homo sapiens) (UniProt P29320); assay: Inhibition of EphA3 (unknown origin) at 1 uM relative to control
[38] = target: Macrophage colony-stimulating factor 1 receptor (Homo sapiens) (UniProt P07333); assay: Inhibition of FMS (unknown origin) at 1 uM relative to control
[39] = target: Discoidin domain-containing receptor 2 (Homo sapiens) (UniProt Q16832); assay: Inhibition of DDR2 (unknown origin) at 1 uM relative to control
[40] = Fraction unbound in rat plasma at 2 uM; type: ADME, cell-free
[41] = target: Tyrosine-protein kinase Fes/Fps (Homo sapiens) (UniProt P07332); assay: Inhibition of FES (unknown origin) at 1 uM relative to control
[42] = target: Proto-oncogene tyrosine-protein kinase receptor Ret (Homo sapiens) (UniProt P07949); assay: Inhibition of RET (unknown origin) at 1 uM relative to control
[43] = system: U-87 MG; assay: Antitumour activity against human U87MG cells xenografted in athymic nude mouse assessed as tumor growth inhibition at 50 mg/kg, po administrated for 3 weeks by caliper method relative to control; type: functional, U-87MG ATCC; conditions: 504 h, read-out: TGI
[44] = target: Tyrosine-protein kinase Mer (Homo sapiens) (UniProt Q12866); assay: Inhibition of MER (unknown origin) at 1 uM relative to control

T1 sequence (P08581 whole entry): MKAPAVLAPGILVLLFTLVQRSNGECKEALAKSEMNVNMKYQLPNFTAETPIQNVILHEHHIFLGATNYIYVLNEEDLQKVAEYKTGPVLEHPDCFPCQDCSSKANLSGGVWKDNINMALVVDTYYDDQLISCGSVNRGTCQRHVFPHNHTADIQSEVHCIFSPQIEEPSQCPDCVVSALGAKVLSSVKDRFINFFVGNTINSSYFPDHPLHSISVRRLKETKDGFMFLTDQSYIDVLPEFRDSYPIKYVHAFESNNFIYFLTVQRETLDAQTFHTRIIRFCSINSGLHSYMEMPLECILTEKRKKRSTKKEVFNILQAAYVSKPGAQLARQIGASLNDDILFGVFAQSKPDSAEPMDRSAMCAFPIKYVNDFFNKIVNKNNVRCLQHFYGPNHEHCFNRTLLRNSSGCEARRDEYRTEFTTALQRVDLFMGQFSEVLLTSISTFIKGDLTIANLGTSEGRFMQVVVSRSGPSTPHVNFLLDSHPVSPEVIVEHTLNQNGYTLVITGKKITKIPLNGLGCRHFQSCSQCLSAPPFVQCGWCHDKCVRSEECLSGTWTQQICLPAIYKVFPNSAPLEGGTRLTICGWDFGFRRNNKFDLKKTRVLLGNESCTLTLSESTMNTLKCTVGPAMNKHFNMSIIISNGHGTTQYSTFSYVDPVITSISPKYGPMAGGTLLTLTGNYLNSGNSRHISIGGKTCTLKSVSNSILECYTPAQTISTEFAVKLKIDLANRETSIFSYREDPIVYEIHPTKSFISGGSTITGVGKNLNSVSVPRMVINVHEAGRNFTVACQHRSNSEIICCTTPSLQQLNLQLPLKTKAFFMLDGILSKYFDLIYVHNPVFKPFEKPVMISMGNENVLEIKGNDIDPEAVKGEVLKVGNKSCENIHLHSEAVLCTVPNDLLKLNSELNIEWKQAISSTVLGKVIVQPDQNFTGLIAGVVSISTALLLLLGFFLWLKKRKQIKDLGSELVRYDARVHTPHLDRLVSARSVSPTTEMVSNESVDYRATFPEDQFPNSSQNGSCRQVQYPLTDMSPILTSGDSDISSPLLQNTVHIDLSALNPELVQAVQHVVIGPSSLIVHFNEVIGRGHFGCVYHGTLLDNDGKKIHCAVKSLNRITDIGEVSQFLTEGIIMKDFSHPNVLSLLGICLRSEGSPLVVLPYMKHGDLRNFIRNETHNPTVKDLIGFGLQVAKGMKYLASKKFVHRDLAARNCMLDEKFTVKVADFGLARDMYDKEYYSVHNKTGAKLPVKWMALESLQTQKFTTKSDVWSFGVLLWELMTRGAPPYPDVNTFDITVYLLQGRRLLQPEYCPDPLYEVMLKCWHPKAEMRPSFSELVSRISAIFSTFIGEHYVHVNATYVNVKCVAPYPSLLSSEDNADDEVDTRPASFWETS
Sequence of Tyrosine-protein kinase Fes/Fps (Homo sapiens) (P07332 whole entry): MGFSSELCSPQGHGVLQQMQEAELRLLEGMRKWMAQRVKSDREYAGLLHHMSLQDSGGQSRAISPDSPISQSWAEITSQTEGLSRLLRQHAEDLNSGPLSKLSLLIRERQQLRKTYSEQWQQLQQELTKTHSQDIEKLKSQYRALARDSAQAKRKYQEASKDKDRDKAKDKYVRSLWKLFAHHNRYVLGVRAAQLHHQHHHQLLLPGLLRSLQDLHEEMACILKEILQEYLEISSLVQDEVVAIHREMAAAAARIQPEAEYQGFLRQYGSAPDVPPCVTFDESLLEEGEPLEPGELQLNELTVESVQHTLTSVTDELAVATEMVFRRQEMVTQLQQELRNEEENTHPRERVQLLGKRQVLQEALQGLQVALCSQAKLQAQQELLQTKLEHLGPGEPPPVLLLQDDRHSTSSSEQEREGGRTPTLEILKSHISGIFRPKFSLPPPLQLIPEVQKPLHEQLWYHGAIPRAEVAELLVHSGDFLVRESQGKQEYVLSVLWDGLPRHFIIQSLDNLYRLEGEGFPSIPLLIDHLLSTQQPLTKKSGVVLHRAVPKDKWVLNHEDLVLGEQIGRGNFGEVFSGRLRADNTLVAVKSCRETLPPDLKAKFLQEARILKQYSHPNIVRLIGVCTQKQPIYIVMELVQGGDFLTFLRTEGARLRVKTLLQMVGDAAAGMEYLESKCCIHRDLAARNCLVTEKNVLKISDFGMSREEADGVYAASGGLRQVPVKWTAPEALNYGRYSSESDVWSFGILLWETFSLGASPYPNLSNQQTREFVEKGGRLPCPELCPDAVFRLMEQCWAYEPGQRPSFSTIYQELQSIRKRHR
Sequence of Ephrin type-A receptor 3 (Homo sapiens) (P29320 whole entry): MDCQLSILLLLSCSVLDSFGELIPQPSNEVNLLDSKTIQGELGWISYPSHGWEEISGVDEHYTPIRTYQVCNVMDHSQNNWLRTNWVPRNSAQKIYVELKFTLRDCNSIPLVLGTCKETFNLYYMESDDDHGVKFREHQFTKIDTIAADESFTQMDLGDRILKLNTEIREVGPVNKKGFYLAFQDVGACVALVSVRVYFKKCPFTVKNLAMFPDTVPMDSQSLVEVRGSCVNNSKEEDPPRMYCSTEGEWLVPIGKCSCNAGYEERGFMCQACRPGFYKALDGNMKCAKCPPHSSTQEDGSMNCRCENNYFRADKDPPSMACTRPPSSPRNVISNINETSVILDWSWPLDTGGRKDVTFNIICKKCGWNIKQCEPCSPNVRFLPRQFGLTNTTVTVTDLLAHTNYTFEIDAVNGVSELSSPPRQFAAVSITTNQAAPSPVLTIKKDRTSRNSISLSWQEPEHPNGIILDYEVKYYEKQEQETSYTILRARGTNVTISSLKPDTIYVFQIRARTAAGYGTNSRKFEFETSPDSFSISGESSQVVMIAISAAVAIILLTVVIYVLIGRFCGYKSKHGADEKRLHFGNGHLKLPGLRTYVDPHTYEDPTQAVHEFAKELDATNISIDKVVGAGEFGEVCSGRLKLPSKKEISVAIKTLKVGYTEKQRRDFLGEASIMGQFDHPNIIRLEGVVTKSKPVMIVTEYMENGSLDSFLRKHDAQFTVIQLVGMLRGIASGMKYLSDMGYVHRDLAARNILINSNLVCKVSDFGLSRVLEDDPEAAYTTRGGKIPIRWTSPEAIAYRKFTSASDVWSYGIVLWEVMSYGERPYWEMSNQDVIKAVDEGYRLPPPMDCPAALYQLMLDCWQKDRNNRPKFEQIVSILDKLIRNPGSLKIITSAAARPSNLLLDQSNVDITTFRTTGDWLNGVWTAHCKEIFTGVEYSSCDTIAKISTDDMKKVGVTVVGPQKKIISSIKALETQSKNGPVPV
Sequence of Discoidin domain-containing receptor 2 (Homo sapiens) (Q16832 whole entry, the tested form may be a part): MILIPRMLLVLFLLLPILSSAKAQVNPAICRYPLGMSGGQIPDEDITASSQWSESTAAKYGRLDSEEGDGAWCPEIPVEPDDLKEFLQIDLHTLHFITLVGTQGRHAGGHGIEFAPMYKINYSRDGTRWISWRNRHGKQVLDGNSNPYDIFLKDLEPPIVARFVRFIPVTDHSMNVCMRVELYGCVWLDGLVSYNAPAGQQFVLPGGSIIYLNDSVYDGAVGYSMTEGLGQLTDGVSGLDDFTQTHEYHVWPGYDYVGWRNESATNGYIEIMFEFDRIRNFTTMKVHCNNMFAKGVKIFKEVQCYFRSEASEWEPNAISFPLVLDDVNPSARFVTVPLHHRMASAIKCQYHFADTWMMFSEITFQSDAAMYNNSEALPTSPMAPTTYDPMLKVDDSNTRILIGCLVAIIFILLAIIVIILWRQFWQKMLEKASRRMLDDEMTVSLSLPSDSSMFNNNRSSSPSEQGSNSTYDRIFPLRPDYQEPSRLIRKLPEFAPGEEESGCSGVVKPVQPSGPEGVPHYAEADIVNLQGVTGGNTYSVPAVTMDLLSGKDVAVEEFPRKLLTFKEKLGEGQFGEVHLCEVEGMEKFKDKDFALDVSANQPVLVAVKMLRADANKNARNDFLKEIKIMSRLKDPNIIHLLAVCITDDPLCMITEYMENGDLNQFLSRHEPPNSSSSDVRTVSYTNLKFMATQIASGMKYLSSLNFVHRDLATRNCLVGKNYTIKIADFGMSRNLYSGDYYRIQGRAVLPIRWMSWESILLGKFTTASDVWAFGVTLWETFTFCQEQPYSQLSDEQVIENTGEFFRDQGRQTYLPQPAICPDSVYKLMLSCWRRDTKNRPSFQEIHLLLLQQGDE
Sequence of Tyrosine-protein kinase Lck (Homo sapiens) (P06239 2-509 limits assumed): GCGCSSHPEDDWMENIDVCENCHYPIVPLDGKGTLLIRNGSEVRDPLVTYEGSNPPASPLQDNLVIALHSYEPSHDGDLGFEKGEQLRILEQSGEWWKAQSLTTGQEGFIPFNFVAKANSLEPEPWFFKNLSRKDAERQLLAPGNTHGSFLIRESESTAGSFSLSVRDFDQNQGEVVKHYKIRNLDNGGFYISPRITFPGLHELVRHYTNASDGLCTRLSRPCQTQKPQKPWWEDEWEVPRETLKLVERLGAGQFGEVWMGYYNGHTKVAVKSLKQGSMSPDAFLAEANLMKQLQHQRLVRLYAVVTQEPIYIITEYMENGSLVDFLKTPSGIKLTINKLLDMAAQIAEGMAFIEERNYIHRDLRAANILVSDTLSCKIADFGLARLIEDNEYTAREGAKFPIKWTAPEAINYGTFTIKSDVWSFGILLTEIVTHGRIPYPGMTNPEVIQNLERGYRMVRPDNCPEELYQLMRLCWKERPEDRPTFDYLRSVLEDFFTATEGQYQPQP
Sequence of Tyrosine-protein kinase Fgr (Homo sapiens) (P09769 2-529 limits assumed): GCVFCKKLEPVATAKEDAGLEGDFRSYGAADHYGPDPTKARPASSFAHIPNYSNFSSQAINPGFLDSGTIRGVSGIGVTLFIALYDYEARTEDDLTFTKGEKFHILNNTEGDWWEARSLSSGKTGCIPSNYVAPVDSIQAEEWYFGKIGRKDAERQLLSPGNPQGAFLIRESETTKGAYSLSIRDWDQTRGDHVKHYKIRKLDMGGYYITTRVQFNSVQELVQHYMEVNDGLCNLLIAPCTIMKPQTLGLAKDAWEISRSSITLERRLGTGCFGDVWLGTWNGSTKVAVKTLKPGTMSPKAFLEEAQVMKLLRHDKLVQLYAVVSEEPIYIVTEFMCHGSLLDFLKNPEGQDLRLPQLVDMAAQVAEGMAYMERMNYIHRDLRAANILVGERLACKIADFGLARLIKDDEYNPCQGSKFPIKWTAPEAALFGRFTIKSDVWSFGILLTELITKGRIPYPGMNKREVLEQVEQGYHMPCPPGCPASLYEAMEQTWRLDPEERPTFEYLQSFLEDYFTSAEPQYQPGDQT

Which AUC [1] does the source give for `Cc1cc2ccnc(Nc3ccc(Oc4ccnc(N)c4Cl)c(F)c3)c2c(=O)n1-c1ccc(F)cc1` here?
Its AUC is 10500 ng·h/mL.

And the CL [2]?
Its CL is 103 mL/min/kg.

And the inhibition in vivo at 40 mg/kg [3]?
The inhibition in vivo at 40 mg/kg was 72%.

And the Tmax [4]?
Its Tmax is 2.3 h.

And the Cmax [5]?
Its Cmax is 3700 ng/mL.

What about the AUC(0-inf) [6] of the same compound?
Its AUC(0-inf) is 21200 ng·h/mL.

And the inhibition [7]?
The inhibition was “Dose-dependent effect”.

What about the minimal effective dose [7] of the same compound?
Its minimal effective dose is 32.5 mg/kg.

What about the Vd [8] of the same compound?
Its Vd is 2.4 L/kg.

What about the half-life [9] of the same compound?
The half-life was 11 h.

What about the inhibition in vivo at 25 mg/kg [10] of the same compound?
Its inhibition in vivo at 25 mg/kg is 44%.

What about the bioavailability [11] of the same compound?
Its bioavailability is 51%.

What about the half-life [12] of the same compound?
Its half-life is 7 h.

Which IC50 [13] does the source give for `CCOc1ccn(-c2ccc(F)cc2)c(=O)c1C(=O)Nc1ccc(Oc2ccnc(N)c2Cl)c(F)c1` [BMS-777607] here?
The IC50 was 0.0466 µM.

And the IC50 [14]?
Its IC50 is 0.139 µM.

What about the IC50 [15] of the same compound?
The IC50 was 0.0076 µM.

What about the inhibition in vivo at 25 mg/kg [16] of the same compound?
The inhibition in vivo at 25 mg/kg was 15%.

And the inhibition in vivo at 25 mg/kg [10]?
Its inhibition in vivo at 25 mg/kg is 98%.

Which inhibition [17] does the source give for `Nc1nccc(Oc2ccc(Nc3nccc4ccn(-c5ccc(F)cc5)c(=O)c34)cc2F)c1Cl` here?
Its inhibition is 100%.

And the Fu [18]?
The Fu was less than 0.5%.

And the inhibition [19]?
The inhibition was 97%.

And the inhibition [20]?
The inhibition was 43%.

And the AUC(0-inf) [1]?
Its AUC(0-inf) is 3100 ng·h/mL.

What about the inhibition [21] of the same compound?
Its inhibition is 10%.

And the inhibition [22]?
The inhibition was 35%.

And the clearance [2]?
Its clearance is 13.3 mL/min/kg.

And the IC50 [13]?
Its IC50 is 0.069 µM.

What about the Tmax [4] of the same compound?
The Tmax was 1.2 h.

What about the Cmax [5] of the same compound?
Its Cmax is 1600 ng/mL.

What about the inhibition [23] of the same compound?
The inhibition was 100%.

What about the inhibition [24] of the same compound?
Its inhibition is 95%.

And the inhibition [25]?
The inhibition was 87%.

What about the inhibition [26] of the same compound?
Its inhibition is 83%.

And the AUC(0-inf) [6]?
Its AUC(0-inf) is 6700 ng·h/mL.

What about the inhibition [27] of the same compound?
Its inhibition is 62%.

What about the Fu [28] of the same compound?
The Fu was less than 0.5%.

What about the inhibition [29] of the same compound?
The inhibition was 100%.

What about the inhibition in vivo at 50 mg/kg [30] of the same compound?
The inhibition in vivo at 50 mg/kg was 95%.

And the inhibition [31]?
Its inhibition is -9%.

What about the inhibition [32] of the same compound?
The inhibition was 99%.

And the inhibition in vivo at 12.5 mg/kg [33]?
Its inhibition in vivo at 12.5 mg/kg is 53%.

What about the inhibition [7] of the same compound?
The inhibition was “Dose-dependent effect”.

And the minimal effective dose [7]?
Its minimal effective dose is 12.5 mg/kg.

And the Vd [8]?
The Vd was 3.6 L/kg.

What about the inhibition [34] of the same compound?
Its inhibition is 44%.

What about the inhibition [35] of the same compound?
Its inhibition is 43%.

What about the inhibition [36] of the same compound?
Its inhibition is 75%.

And the half-life [9]?
Its half-life is 5.1 h.

And the inhibition in vivo at 25 mg/kg [16]?
The inhibition in vivo at 25 mg/kg was 50%.

And the inhibition [37]?
The inhibition was 38%.

And the inhibition in vivo at 25 mg/kg [10]?
The inhibition in vivo at 25 mg/kg was 100%.

And the inhibition [38]?
Its inhibition is 88%.

And the bioavailability [11]?
Its bioavailability is 54%.

And the half-life [12]?
The half-life was 3.2 h.

What about the inhibition [39] of the same compound?
The inhibition was 98%.

What about the Fu [40] of the same compound?
Its Fu is less than 0.5%.

What about the inhibition [41] of the same compound?
The inhibition was 10%.

What about the inhibition [42] of the same compound?
The inhibition was 96%.

And the inhibition in vivo at 50 mg/kg [43]?
Its inhibition in vivo at 50 mg/kg is 114%.

What about the inhibition [44] of the same compound?
The inhibition was 100%.

With `Cc1cc2ccnc(Nc3ccc(Oc4ccnc(N)c4I)c(F)c3)c2c(=O)n1-c1ccc(F)cc1` as the compound, how does the AUC(0-inf) [1] read?
Its AUC(0-inf) is 13100 ng·h/mL.

What about the clearance [2] of the same compound?
Its clearance is 6.67 mL/min/kg.

What about the Tmax [4] of the same compound?
The Tmax was 1.5 h.

What about the Cmax [5] of the same compound?
The Cmax was 2700 ng/mL.

And the AUC(0-inf) [6]?
Its AUC(0-inf) is 25700 ng·h/mL.

What about the Vd [8] of the same compound?
The Vd was 2.9 L/kg.

What about the half-life [9] of the same compound?
The half-life was 4.9 h.

And the bioavailability [11]?
Its bioavailability is 49%.

And the half-life [12]?
The half-life was 4.2 h.

Which IC50 [15] does the source give for `Cc1cc2ccnc(Nc3ccc(Oc4ccnc(N)c4Cl)c(F)c3)c2c(=O)n1-c1ccc(OC(F)(F)F)cc1` here?
The IC50 was greater than 1 µM.
